Converted amounts (≈) assume the structure as drawn. Where a SMILES comes first, the peptide text is derived from it. Where no end group is shown, it is not given here.
Experiments:
[1] = system: E. faecalis (NCTC 12697); type: cell-based, Enterococcus faecalis; conditions: NCTC 12697
Description: (§1) The antimicrobial activity of the peptides was determined through the minimum inhibitory concentrations (MICs) and the minimum bactericidal concentration (MBCs) using the broth-dilution method in a 96-well plate, as described in the previous study. Six bacteria, including the Gram-positive bacteria, S. aureus (ATCC CRM 6538), MRSA (ATCC CRM 12493) and E. faecalis (NCTC 12697), the Gram-negative bacteria, E. coli (ATCC CRM 8739), K. pneumoniae (ATCC CRM 43816) and P. aeruginosa (ATCC CRM 9027), the yeast, C. albicans (ATCC CRM 10231) and clinical isolates, S. aureus (B042 V2E1 A), MRSA (B038 V1S1 A), E. coli (ATCC BAA-2340) and K. pneumoniae (ATCC BAA-1705) were used in these assays to evaluate the antimicrobial potency of the two peptides by determining their MICs and MBCs. All bacteria were cultured in MHB and the yeast, C. albicans was cultured in YPD broth overnight. Then, the microorganisms were sub-cultured and diluted to the final concentration of 2 × 10^5 CFU/mL to 5 × 10^5 CFU/mL. The Norfloxacin and amphotericin B were used as positive controls for the bacteria and yeast, respectively. The assay was repeated three times, with five replicates at each time.

[2] = system: P. aeruginosa (ATCC CRM 9027); type: cell-based, Pseudomonas aeruginosa; conditions: ATCC CRM 9027
Description: as §1

[3] = system: C. albicans (ATCC CRM 10231); type: cell-based, Candida albicans; conditions: ATCC CRM 10231
Description: as §1

[4] = system: S. aureus (ATCC CRM 6538); type: cell-based, Staphylococcus aureus; conditions: ATCC CRM 6538
Description: as §1

[5] = system: S. aureus (B042 V2E1 A); type: cell-based, Staphylococcus aureus; conditions: B042 V2E1 A
Description: as §1

[6] = system: MRSA (ATCC CRM 12493); type: cell-based, methicillin-resistant S. aureus; conditions: ATCC CRM 12493
Description: as §1

[7] = system: MRSA (B038 V1S1 A); type: cell-based, methicillin-resistant S. aureus; conditions: B038 V1S1 A
Description: as §1

[8] = system: E. coli (ATCC BAA-2340); type: cell-based, Escherichia coli; conditions: ATCC BAA-2340
Description: as §1

[9] = system: E. coli (ATCC CRM 8739); type: cell-based, Escherichia coli; conditions: ATCC CRM 8739
Description: as §1

[10] = system: K. pneumoniae (ATCC BAA-1705); type: cell-based, Klebsiella pneumoniae; conditions: ATCC BAA-1705
Description: as §1

[11] = system: K. pneumoniae (ATCC CRM 43816); type: cell-based, Klebsiella pneumoniae; conditions: ATCC CRM 43816
Description: as §1

[12] = system: S. aureus (ATCC CRM 6538); type: cell-based, Staphylococcus aureus; conditions: ATCC CRM 6538, 24 h
Description: (§2) The MBIC and MBEC assays were performed to measure the inhibition and eradication of bacterial biofilm in the presence of different concentrations of peptides. Gram-positive bacteria were inoculated in Luria–Bertani (LB) broth at 37 °C overnight whereas Gram-negative bacteria were inoculated in tryptic soy broth (TSB), and then sub-cultured until reaching the logarithmic growth phase by measuring the OD values at a wavelength of 550nm. For the MBIC assay, 99 µL of diluted bacterial suspension (5 × 10^5 CFU/mL) was mixed with 1 µL of prepared peptide solutions in the wells of a round-bottomed 96-well plate, achieving the final concentrations from 512 to 1 µM, and then incubated at 37 °C for 24 h in a shaking incubator at 200 revolutions per minute (rpm). After this, the plate was washed twice by PBS and fixed with methanol for 30 min. For MBEC assay, 100 µL of diluted bacterial suspension (5 × 10^5 CFU/mL) was seeded into a round-bottomed 96-well plate and incubated at 37 °C for 24 h in a shaking incubator at 200 rpm to obtain mature biofilm. After this, plates were washed twice by PBS and incubated with different concentrations of peptide solution from 512 to 1 µM at 37 °C for 24 h. Afterwards, the plate was washed twice with PBS and fixed with methanol for 30 min. Then, both MBIC and MBEC plates were stained by 130 μL of 0.1% (g/v) crystal violet solutions for 30 min and washed with PBS until no apparent staining was observed. Evaporating crystal violet stains were dissolved by 33% (v/v) acetic acid, and the absorbance values were measured by a Synergy HT Microplate Reader (BioTek, Minneapolis, MN, USA) set to 595 nm. The minimum concentration that inhibited the formation of biofilm was defined when compared to the negative control group, as the MBIC. The minimum concentration that eradicated the biofilm was defined, when compared to the negative control group, as the MBEC. The biofilm assays were performed in triplicate.

[13] = system: MRSA (ATCC CRM 12493); type: cell-based, methicillin-resistant S. aureus; conditions: ATCC CRM 12493, 24 h
Description: as §2

[14] = system: E. coli (ATCC CRM 8739); type: cell-based, Escherichia coli; conditions: ATCC CRM 8739, 24 h
Description: as §2

[15] = system: K. pneumoniae (ATCC CRM 43816); type: cell-based, Klebsiella pneumoniae; conditions: ATCC CRM 43816, 24 h
Description: as §2

[16] = system: P. aeruginosa (ATCC CRM 9027); type: cell-based, Pseudomonas aeruginosa; conditions: ATCC CRM 9027, 24 h
Description: as §2

Row | Compound | MBC [1] [µM] | MIC [1] [µM] | MBC [2] [µM] | MIC [2] [µM] | MBC [3] [µM] | MIC [3] [µM] | MBC [4] [µM] | MIC [4] [µM] | MBC [5] [µM] | MIC [5] [µM] | MBC [6] [µM] | MIC [6] [µM] | MBC [7] [µM] | MIC [7] [µM] | MBC [8] [µM] | MIC [8] [µM] | MBC [9] [µM] | MIC [9] [µM] | MBC [10] [µM] | MIC [10] [µM] | other results
1 | CC[C@H](C)[C@H](NC(=O)[C@H](CCCCN)NC(=O)[C@@H](NC(=O)[C@H](CO)NC(=O)[C@H](CC(N)=O)NC(=O)[C@H](Cc1c[nH]c2ccccc12)NC(=O)[C@H](CC(C)C)NC(=O)CN)[C@@H](C)CC)C(=O)N[C@@H](C)C(=O)NCC(=O)N[C@@H](CCCCN)C(=O)N[C@@H](CCCCN)C(=O)N[C@@H](CC(C)C)C(=O)N[C@@H](Cc1ccccc1)C(=O)N[C@H](C(=O)N[C@@H](CC(N)=O)C(=O)N[C@H](C(=O)N[C@@H](CC(C)C)C(=O)N[C@@H](CC(=O)O)C(=O)N[C@@H](CCCCN)C(=O)N[C@H](C(=O)N[C@@H](CCCNC(=N)N)C(=O)N[C@H]1CSSC[C@@H](C(=O)O)NC(=O)CNC(=O)CNC(=O)[C@H](C)NC(=O)[C@H](C(C)C)NC(=O)[C@H](CCCCN)NC1=O)[C@@H](C)CC)C(C)C)C(C)C [GL-29] (HELM PEPTIDE1{G.L.W.N.S.I.K.I.A.G.K.K.L.F.V.N.V.L.D.K.I.R.C.K.V.A.G.G.C}$PEPTIDE1,PEPTIDE1,23:R3-29:R3$$$V2.0; N-terminus and C-terminus assumed; bridges inferred) | 32 (≈ 100 µg/mL) | 16 (≈ 50.1 µg/mL) | 16 (≈ 50.1 µg/mL) | 16 (≈ 50.1 µg/mL) | 256 (≈ 801 µg/mL) | 128 (≈ 401 µg/mL) | 4 (≈ 12.5 µg/mL) | 4 (≈ 12.5 µg/mL) | 4 (≈ 12.5 µg/mL) | 4 (≈ 12.5 µg/mL) | 8 (≈ 25 µg/mL) | 8 (≈ 25 µg/mL) | 2 (≈ 6.26 µg/mL) | 2 (≈ 6.26 µg/mL) | 4 (≈ 12.5 µg/mL) | 2 (≈ 6.26 µg/mL) | 4 (≈ 12.5 µg/mL) | 2 (≈ 6.26 µg/mL) | 4 (≈ 12.5 µg/mL) | 4 (≈ 12.5 µg/mL) | MBC [11]: 8 µM (≈ 25 µg/mL); MIC [11]: 8 µM (≈ 25 µg/mL); MBEC [12]: 128 µM; MBIC [12]: 4 µM; MBEC [13]: 256 µM; MBIC [13]: 8 µM; MBEC [14]: 128 µM; MBIC [14]: 4 µM; MBEC [15]: > 512 µM; MBIC [15]: 16 µM; MBEC [16]: > 512 µM; MBIC [16]: 64 µM
2 | GLWNSIKIAGKKLFVNVLDKIR-NH2 [GL-22] | 32 | 32 | 32 | 32 | 256 | 128 | 4 | 4 | 64 | 32 | 8 | 8 | 4 | 4 | 4 | 2 | 4 | 4 | 4 | 4 | MBC [11]: 4 µM; MIC [11]: 4 µM; MBEC [12]: > 512 µM; MBIC [12]: 8 µM; MBEC [13]: > 512 µM; MBIC [13]: 8 µM; MBEC [14]: > 512 µM; MBIC [14]: 16 µM; MBEC [15]: > 512 µM; MBIC [15]: 16 µM; MBEC [16]: > 512 µM; MBIC [16]: 128 µM
